This assay deals with TNKS1 (Homo sapiens, UniProt O95271). Briefly: TNKS1/PARP Biochemical Assay (TNKS1).

For 51 compounds, IC50 results are on record in patent US9193689B2, “3-aryl-5-substituted-isoquinolin-1-one compounds and their therapeutic use” (INSTITUTE OF CANCER RESEARCH: ROYAL CANCER HOSPITAL (THE), priority 2012, dated 2015).

Structures are written as SMILES.

Turning to `Cc1cccc2c(=O)[nH]c(-c3ccc(S(=O)(=O)N(C)CC4CCOCC4)cc3)cc12` [IQ-118], the IC50 was less than 20 nM. Next, `Cc1cccc2c(=O)[nH]c(-c3ccc(C(=O)N(C4CC4)C4CCN(C)CC4)cc3)cc12` [IQ-098]: less than 50 nM. Next, `Cc1cccc2c(=O)[nH]c(-c3ccc(C(=O)N(C)C4CCN(C)C4)cc3)cc12` (single isomer, unassigned) [IQ-205-2]: less than 20 nM. The compound `O=c1[nH]c(-c2ccc(CN3CCNCC3)cc2)cc2c(F)ccc(F)c12` [IQ-079] yielded a 50% inhibitory concentration (IC50) of less than 500 nM. For `Cc1cc(F)cc2c(=O)[nH]c(-c3ccc(C(=O)N(C)C4CCN(C)CC4)cc3)cc12` [IQ-195], the IC50 was less than 20 nM. Next, `O=c1[nH]c(-c2ccc(N3CCN(CCO)CC3)nc2)cc2c(Cl)cccc12` [IQ-012]: less than 50 nM; `Cc1cccc2c(=O)[nH]c(-c3ccc(CN4CCNC(=O)C4)cc3F)cc12` [IQ-166]: less than 500 nM; `Cc1cccc2c(=O)[nH]c(-c3ccc(Cn4ccnc4)cc3)cc12` [IQ-180]: less than 20 nM. Next, `Cc1cccc2c(=O)[nH]c(-c3ccc(CN4CC(C)NC(C)C4)cc3)cc12` (stereo not drawn) [IQ-063]: less than 500 nM; `Cc1cccc2c(=O)[nH]c(-c3ccc(CN4CCNCC4=O)cc3)cc12` [IQ-073]: less than 50 nM. `CNCc1ccc(-c2cc3c(C)cccc3c(=O)[nH]2)cc1` [IQ-029] showed an IC50 of less than 20 nM. As for `Cc1cccc2c(=O)[nH]c(-c3ccc(C(=O)N(C)C4CCN(C)CC4)nc3)cc12` [IQ-099], the figure is less than 20 nM; as for `Cc1cccc2c(=O)[nH]c(-c3ccc(CN4CCN(C)C(C)C4)cc3)cc12` (stereo not drawn) [IQ-052], less than 50 nM; as for `Cc1cccc2c(=O)[nH]c(-c3ccc(C(=O)N4CC(O)C4)cc3)cc12` [IQ-188], less than 20 nM.

Compound `O=C(c1ccc(-c2cc3c(F)cc(F)cc3c(=O)[nH]2)cc1)N1CCN(CCO)CC1` [IQ-228, 5,7-Difluoro-3-{4-[4-(2-hydroxy-ethyl)-piperazine-1-carbonyl]-phenyl}-2H-isoquinolin-1-one] gave an IC50 of less than 50 nM. As for `CC(=O)N1CCN(c2ccc(-c3cc4c(Cl)cccc4c(=O)[nH]3)cc2)CC1` [IQ-015], the figure is less than 50 nM; as for `Cc1cccc2c(=O)[nH]c(-c3ccc(CC(=O)N4CC(O)C4)cc3)cc12` [IQ-214], less than 20 nM; as for `Cc1cc(F)cc2c(=O)[nH]c(-c3ccc(C(=O)N4CC(N(C)C)C4)cc3)cc12` [IQ-203], less than 50 nM.

Consider `Cc1cc(F)cc2c(=O)[nH]c(-c3ccc(CC(=O)N4CC(O)C4)cc3)cc12` [IQ-215], for which the IC50 is less than 20 nM. With `Cc1cccc2c(=O)[nH]c(-c3ccc(S(=O)(=O)N(C)CC4CCN(C)CC4)cc3)cc12` [IQ-111], the IC50 was less than 50 nM. `Cc1cccc2c(=O)[nH]c(-c3ccc(CCN4CCOCC4)cc3)cc12` [IQ-042] displayed an IC50 of less than 50 nM. Next, `CN(CC1CCN(C(=O)OC(C)(C)C)CC1)C(=O)c1ccc(-c2cc3c(Cl)cccc3c(=O)[nH]2)cc1` [IQ-145]: less than 500 nM. As for `CN1CCN(Cc2ccc(-c3cc4c(F)cc(F)cc4c(=O)[nH]3)cc2)CC1` [IQ-138], the figure is less than 50 nM. As for `Cc1cccc2c(=O)[nH]c(-c3ccc(C(=O)N(C)C4CN(C)C4)cc3)cc12` [IQ-199], the figure is less than 20 nM; as for `CC(C)(C)OC(=O)N1CCN(Cc2ccc(-c3cc4c(F)ccc(F)c4c(=O)[nH]3)cc2)CC1` [IQ-077], less than 500 nM; as for `Cc1cccc2c(=O)[nH]c(-c3ccc(CN4CCN(C(=O)C5CC5)CC4)nc3)cc12` [IQ-162], less than 20 nM. Compound `Cc1cccc2c(=O)[nH]c(-c3ccc(C(=O)N(C)CC4CCN(C)C4)cc3)cc12` (stereo not drawn) [IQ-204] gave an IC50 of less than 20 nM. As for `Cc1cccc2c(=O)[nH]c(-c3ccc(S(=O)(=O)N(C)C4CCN(C)CC4)cc3)cc12` [IQ-109], the figure is less than 20 nM. For the compound `Cc1cccc2c(=O)[nH]c(-c3ccc(C(=O)N(C)C4CCCN(C)C4)cc3)cc12` (stereo not drawn) [IQ-211], the IC50 is less than 20 nM. Next, `Cc1ccc(F)c2c(=O)[nH]c(-c3ccc(C(=O)N4CCN(CCO)CC4)cc3)cc12` [IQ-193]: less than 20 nM; `Cc1cccc2c(=O)[nH]c(-c3cnc(N4CCN(C(=O)OC(C)(C)C)CC4)c(F)c3)cc12` [IQ-020]: less than 500 nM; `Cc1cc(F)cc2c(=O)[nH]c(-c3ccc(C(=O)N(C)CC4CCN(C)CC4)cc3)cc12` [IQ-208]: less than 20 nM.

In turn, `Cc1cccc2c(=O)[nH]c(-c3ccc(N4CCN(C(=O)OC(C)(C)C)CC4)cc3)cc12` [IQ-013] registered an IC50 of less than 50 nM. Next, `Cc1cccc2c(=O)[nH]c(-c3ccc(Cn4cccn4)cc3)cc12` [IQ-182]: less than 20 nM; `Cc1cccc2c(=O)[nH]c(-c3ccc(C(=O)N(C)CC4CCN(C(=O)OC(C)(C)C)CC4)cc3)cc12` [IQ-092, 4-({Methyl-[4-(5-methyl-1-oxo-1,2-dihydro-isoquinolin-3-yl)-benzoyl]-amino}-methyl)-piperidine-1-carboxylic acid tert-butyl ester]: less than 500 nM; `Cc1cccc2c(=O)[nH]c(-c3ccc(Cn4cncn4)cc3)cc12` [IQ-171]: less than 50 nM. The compound `CN1CCC(CNC(=O)c2ccc(-c3cc4c(Cl)cccc4c(=O)[nH]3)cc2)CC1` [IQ-091, 4-(5-Chloro-1-oxo-1,2-dihydro-isoquinolin-3-yl)-N-(1-methyl-piperidin-4-ylmethyl)-benzamide] gave an IC50 of less than 500 nM.

In turn, `Cc1cccc2c(=O)[nH]c(-c3ccc(CN4CC(C)(O)C4)cc3)cc12` [IQ-172] gave an IC50 of less than 20 nM. Next, `Cc1cccc2c(=O)[nH]c(-c3ccc(Cn4cccc4)cc3)cc12` [IQ-184]: less than 500 nM; `O=c1[nH]c(-c2ccc(CN3CCNCC3)cc2)cc2c(F)cc(F)cc12` [IQ-158]: less than 50 nM; `Cc1cccc2c(=O)[nH]c(-c3ccc(N4CCN(CCN(C)C)CC4)nc3)cc12` [IQ-018]: less than 20 nM. As for `CNC1CN(Cc2ccc(-c3cc4c(C)cc(F)cc4c(=O)[nH]3)cc2)C1` [IQ-178], the figure is less than 20 nM. For `Cc1cccc2c(=O)[nH]c(-c3ccc(CN4C[C@@H]5C[C@H]4CN5C(=O)OC(C)(C)C)cc3)cc12` [IQ-085], the IC50 is less than 50 nM. The compound `Cc1cccc2c(=O)[nH]c(-c3ccc(C(=O)N(C)C4CCNC4)cc3)cc12` (stereo not drawn) [IQ-200] came in with an IC50 of less than 20 nM. Next, `Cc1cccc2c(=O)[nH]c(-c3ccc(N4CCN(C5CC5)CC4)nc3)cc12` [IQ-004]: less than 20 nM. The compound `Cc1cccc2c(=O)[nH]c(-c3ccc(NC(CO)CO)nc3)cc12` [IQ-219] came in with an IC50 of less than 20 nM. Next, `Cc1cccc2c(=O)[nH]c(-c3ccc(C(=O)N4CCOCC4)cc3)cc12` [IQ-107]: less than 20 nM; `Cc1cccc2c(=O)[nH]c(-c3cnc(N4CCNCC4)nc3)cc12` [IQ-026]: less than 50 nM. Next, `CN1CCN(Cc2ccc(-c3cc4c(C#CCO)cccc4c(=O)[nH]3)cc2)CC1` [IQ-231]: less than 50 nM; `Cc1cccc2c(=O)[nH]c(-c3ccc(CC(=O)N(C)C4CCN(C)CC4)cc3)cc12` [IQ-176]: less than 20 nM; `Cc1cccc2c(=O)[nH]c(-c3ccc(N4CCN(CCO)CC4)nc3)cc12` [IQ-011, 3-{6-[4-(2-Hydroxy-ethyl)-piperazin-1-yl]-pyridin-3-yl}-5-methyl-2H-isoquinolin-1-one]: less than 20 nM.

A word on the IC50: it is the point on the concentration scale where inhibition reaches its midpoint. A high value points to weaker potency.
